Consider four compounds from PubChem BioAssay AID1918947 (Molecular Pharmacology Branch, DTP, NCI, 2023).

Values joined by “and” are separate entries in the source; they are usually repeats but may differ in a detail not shown here. Equal values may be shown once. Bounds are passed on as bounds.

This experiment relates to A498 complex spheroid viability. The experiment in a line: Anticancer human tumor A498 cell line growth inhibition.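 For all read-outs here: spheroids exposed to agents for seven days before readout.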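 For viability, T/C: 100% = DMSO vehicle-treated spheroids.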 As to conditions: for viability, T/C: stronger effect = lower value. In a few lines:
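Drug combinations with the LSD1 inhibitor iadademstat tested on tumor cells co-cultured as spheroids with endothelial cells and mesenchymal stem cells. Concentrations descended in half-log increments from clinical Cmax or 10 microM.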

Setting [1] is: curve of first compound, second compound 0.1 µM.
Where [2] appears, read: curve of first compound, second compound 0.316 µM.
Where [3] appears, read: curve of first compound, second compound 1 µM.
[4] abbreviates: curve of first compound, second compound 3.16 µM.
The mark [5] stands for this setting: curve of first compound, second compound 10 µM.
[6] abbreviates: second compound 0.1 µM, first compound 0.00949 µM.
The mark [7] stands for this setting: second compound 0.1 µM, first compound 0.03 µM.
Where [8] appears, read: second compound 0.1 µM, first compound 0.0949 µM.
Setting [9] is: second compound 0.1 µM, first compound 0.3 µM.
[10] abbreviates: second compound 0.316 µM, first compound 0.00949 µM.
The mark [11] stands for this setting: second compound 0.316 µM, first compound 0.03 µM.
Where [12] appears, read: second compound 0.316 µM, first compound 0.0949 µM.
Setting [13] is: second compound 0.316 µM, first compound 0.3 µM.
Where [14] appears, read: second compound 1 µM, first compound 0.00949 µM.
The mark [15] stands for this setting: second compound 1 µM, first compound 0.03 µM.
[16] abbreviates: second compound 1 µM, first compound 0.0949 µM.
Setting [17] is: second compound 1 µM, first compound 0.3 µM.
Where [18] appears, read: second compound 3.16 µM, first compound 0.00949 µM.
[19] abbreviates: second compound 3.16 µM, first compound 0.03 µM.
[20] abbreviates: second compound 3.16 µM, first compound 0.0949 µM.
Where [21] appears, read: second compound 3.16 µM, first compound 0.3 µM.
The mark [22] stands for this setting: second compound 10 µM, first compound 0.00949 µM.
[23] abbreviates: second compound 10 µM, first compound 0.03 µM.
Setting [24] is: second compound 10 µM, first compound 0.0949 µM.
Where [25] appears, read: second compound 10 µM, first compound 0.3 µM.

`Nc1ccn(C2OC(CO)C(O)C2(F)F)c(=O)n1` (centres undefined) + NC1CC1c1ccc(-c2cccc(O)c2)cc1: the half-maximal inhibitory concentration (IC50) (usually the concentration that gives 50% inhibition) is, setting by setting: under setting [1], below 0.949 nM; under setting [2], below 0.949 nM; under setting [3], below 0.949 nM; under setting [4], below 0.949 nM; under setting [5], below 0.949 nM. The viability, T/C (in general, the ratio of treated to control) (second compound 0.1 µM, first compound 0.000949 µM) was 20.6%; the viability, T/C (second compound 0.1 µM, first compound 0.003 µM) was 28.4%; the viability, T/C under setting [6] is 98.4%; the viability, T/C under setting [7] was 36.4%; the viability, T/C under setting [8] was 35.8%; the viability, T/C under setting [9] is 31.5%. For the same compound, the viability, T/C (second compound 0.316 µM, first compound 0.000949 µM) is 22.6%; the viability, T/C (second compound 0.316 µM, first compound 0.003 µM) is 28.6%; the viability, T/C under setting [10] is 112%; the viability, T/C under setting [11] is 33.9%; the viability, T/C under setting [12] is 35.3%; the viability, T/C under setting [13] was 32.3%. The viability, T/C (second compound 1 µM, first compound 0.000949 µM) was 22.5%; the viability, T/C (second compound 1 µM, first compound 0.003 µM) was 26.8%; the viability, T/C under setting [14] was 105%; the viability, T/C under setting [15] is 35.5%; the viability, T/C under setting [16] is 29.3%; the viability, T/C under setting [17] is 30.6%. Also, the viability, T/C (second compound 3.16 µM, first compound 0.000949 µM) was 22.6%; the viability, T/C (second compound 3.16 µM, first compound 0.003 µM) was 28.3%; the viability, T/C under setting [18] was 94.6%; the viability, T/C under setting [19] was 36.1%; the viability, T/C under setting [20] was 30.3%; the viability, T/C under setting [21] was 28.1%. The viability, T/C runs as follows: (second compound 10 µM, first compound 0.000949 µM) 23.5%; (second compound 10 µM, first compound 0.003 µM) 28.2%; under setting [22], 93.5%; under setting [23], 40.7%; under setting [24], 32.9%; under setting [25], 29.4%.

With `CC1COCCN1c1cc(C2(S(C)(=N)=O)CC2)nc(-c2ccnc3[nH]ccc23)n1` (centres undefined), the viability, T/C (compound 0.0316 µM) is 98.7% and 99.7%; the viability, T/C (compound 0.1 µM) was 98.2% and 97.2%; the viability, T/C (compound 0.316 µM) is 69.6% and 68.1%; the viability, T/C (compound 1 µM) is 34.2% and 28.7%; the viability, T/C (compound 3.16 µM) was 19% and 19.6%; the viability, T/C (compound 10 µM) is 13.1% and 12%. Further, the IC50 (curve of compound) is 605 nM and 543 nM.

Regarding `CCN(c1cc(-c2ccc(CN3CCOCC3)cc2)cc(C(=O)NCc2c(C)cc(C)[nH]c2=O)c1C)C1CCOCC1` + NC1CC1c1ccc(-c2cccc(O)c2)cc1, the IC50 under setting [1] was above 3000 nM; the IC50 under setting [2] is above 3000 nM; the IC50 under setting [3] is above 3000 nM; the IC50 under setting [4] was above 3000 nM; the half-maximal inhibitory concentration (IC50) under setting [5] was above 3000 nM. The viability, T/C by setting is: under setting [6], 98.8%; under setting [7], 112%; under setting [8], 98.9%; under setting [9], 95.1%; (second compound 0.1 µM, first compound 0.949 µM) 103%; (second compound 0.1 µM, first compound 3 µM) 96.7%. For the same compound, the viability, T/C runs as follows: under setting [10], 108%; under setting [11], 106%; under setting [12], 108%; under setting [13], 107%; (second compound 0.316 µM, first compound 0.949 µM) 101%; (second compound 0.316 µM, first compound 3 µM) 104%. Besides, the viability, T/C under setting [14] is 100%; the viability, T/C under setting [15] was 107%; the viability, T/C under setting [16] is 97.6%; the viability, T/C under setting [17] is 94.7%; the viability, T/C (second compound 1 µM, first compound 0.949 µM) was 98.4%; the viability, T/C (second compound 1 µM, first compound 3 µM) was 95.1%. Besides, the viability, T/C is 94% under setting [18]; 92.6% under setting [19]; 89% under setting [20]; 90.1% under setting [21]; 93.8% (second compound 3.16 µM, first compound 0.949 µM); 100% (second compound 3.16 µM, first compound 3 µM). The viability, T/C by setting is: under setting [22], 96.6%; under setting [23], 97.2%; under setting [24], 94.9%; under setting [25], 93.1%; (second compound 10 µM, first compound 0.949 µM) 90.6%; (second compound 10 µM, first compound 3 µM) 91%.

Regarding `O=C(C=Cc1cccc(S(=O)(=O)Nc2ccccc2)c1)NO`, the viability, T/C (compound 0.00949 µM) was 94% and 91%; the viability, T/C (compound 0.03 µM) was 82.5% and 80.6%; the viability, T/C (compound 0.0949 µM) is 70.8% and 65.3%; the viability, T/C (compound 0.3 µM) was 53.1% and 46.8%; the viability, T/C (compound 0.949 µM) is 33.8% and 34.2%; the viability, T/C (compound 3 µM) was 12.4% and 8.72%. In addition, the IC50 (curve of compound) was 365 nM and 282 nM.
